Results published in the METLIN SMRT retention time set (Domingo-Almenara et al. 2019).

Assay: gradient 5% acetonitrile 3 min, to 50% in 2 min, to 85% in 15 min, held 3 min, 100 µL/min
Details: column: Zorbax Extend-C18 2.1 x 50 mm; eluents: water / acetonitrile, 0.1% formic acid
Outline: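 The mobile phases were water and acetonitrile, each with 0.1% formic acid, pumped at 100 μL/min through a Zorbax Extend-C18 column (2.1 × 50 mm, 1.8 μm). Pure standards were injected as mixtures of ~100 molecules and detected by a quadrupole time-of-flight mass spectrometer in positive and negative ionization mode. Retention time came from computationally picked adduct peaks, each inspected by hand.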

## Nc1nc(Cl)nc2c1ncn2[C@@H]1O[C@H](CO)[C@H](O)C1O (stereo partly specified)
  RP-LC retention time: 611 s

## O=C(CN1CCC(c2nc(-c3ccc(F)cc3)no2)CC1)Nc1ccc2c(c1)OCO2
  RP-LC retention time: 720 s

## Cc1nnc(NC(=O)CN2CCCCC2c2nc(C3CC3)no2)s1 (stereo unspecified)
  RP-LC retention time: 755 s

## Cc1ccc(NC(=O)C2CCN(S(C)(=O)=O)c3ccccc3O2)cc1C (stereo unspecified)
  RP-LC retention time: 945 s

## CCN1c2cc(Cl)ccc2C(=O)NC12CCN(C(=O)NCc1cccc(F)c1)CC2
  RP-LC retention time: 856 s

## O=C1N(CCNS(=O)(=O)c2cnc[nH]2)C(c2ccccc2)C12CCCCC2 (stereo unspecified)
  RP-LC retention time: 740 s

## O=C(CC1CCN(C(=O)c2cc3cc(Cl)ccc3[nH]2)CC1)N1CCN(c2ccccn2)CC1
  RP-LC retention time: 669 s

## COc1cc(N2C(=O)CC(N3CCC(C(N)=O)CC3)C2=O)cc(OC)c1OC (stereo unspecified)
  RP-LC retention time: 563 s

## CC1CN(C(=O)Cn2cc(SCC(=O)N3CCCCC3)c3ccccc32)CC(C)O1 (stereo unspecified)
  RP-LC retention time: 783 s

## CC(C)CN(CC1CN(C(=O)COc2ccccc2)CCO1)C(=O)c1ccccc1 (stereo unspecified)
  RP-LC retention time: 851 s

## COc1ccc(NC(=O)c2cn3c(n2)COCC3)cc1Cl
  RP-LC retention time: 703 s

## Cc1nc(-c2ccc(N3CCN(C(=O)c4cc5ccccc5[nH]4)CC3)nc2)sc1C
  RP-LC retention time: 924 s

## O=S(=O)(c1ccccc1F)N1CCC(c2noc(-c3cccc(F)c3)n2)CC1
  RP-LC retention time: 1110 s

## CCc1nc2cccnc2n1CCN1CCN(C(=O)Nc2cccc(Br)c2)CC1
  RP-LC retention time: 616 s

## c1ccc(CCc2nnc3sc(-c4ccc5ccccc5n4)nn23)cc1
  RP-LC retention time: 1180 s

## O=C(NCc1ccc(F)cc1)C1CCCN(S(=O)(=O)c2c[nH]c(C(=O)N3CCCC3)c2)C1 (stereo unspecified)
  RP-LC retention time: 747 s

## O=C(c1ccc(F)c(F)c1)N1CCN(c2nc(CN3CCCC3)cs2)CC1
  RP-LC retention time: 635 s

## CCOC(=O)C(C)NC(=O)Nc1cc(F)c2nc(N3CCOCC3)ccc2c1 (stereo unspecified)
  RP-LC retention time: 812 s

## COCCN1CCn2cc(S(=O)(=O)Nc3ccc(C)c(F)c3)cc2C1=O
  RP-LC retention time: 740 s

## O=C(Cn1ccc2sccc2c1=O)NCc1ccccc1F
  RP-LC retention time: 785 s

## Cc1cc(C(=O)N2CCC(c3nc4ccccc4s3)CC2)no1
  RP-LC retention time: 763 s

## Cc1ccc(Cn2c(=O)c(N3CCN(C(=O)C4CCCO4)CC3)nc3cccnc32)cc1 (stereo unspecified)
  RP-LC retention time: 998 s

## CCOC(=O)Cc1ccc(NC(=O)N2CCCC2c2c(C)noc2C)cc1 (stereo unspecified)
  RP-LC retention time: 775 s

## CNC(=O)c1noc([C@@H]2CC(F)(F)CN2Cc2cccn2C)n1
  RP-LC retention time: 590 s

## Nc1cc(C2CCN(C(=O)c3ccccc3Br)CC2)no1
  RP-LC retention time: 676 s

## CN1CCCn2cc(S(=O)(=O)Nc3ccc(Cl)cc3)cc2C1=O
  RP-LC retention time: 714 s

## CC(C)S(=O)(=O)c1cc2c(cc1NC(=O)c1ccccc1F)n(C)c(=O)n2C
  RP-LC retention time: 799 s

## COc1ccc(-c2csc(NC(=O)c3sc(COc4ccc(Cl)c(C)c4)nc3C)n2)cc1
  RP-LC retention time: 1320 s

## Cc1c(-c2ccccc2)nc2ccc(Br)cc2c1C(=O)O
  RP-LC retention time: 698 s

## CCc1nc(-c2csc(S(=O)(=O)N3CCCC(C(=O)Nc4cc(F)ccc4F)C3)c2)no1 (stereo unspecified)
  RP-LC retention time: 1090 s

## Cc1cc2nn(CC(=O)NCc3ccccc3)c(=O)n2c(-c2ccc(F)cc2)n1
  RP-LC retention time: 781 s

## Cc1ccc(CNC(=O)c2ccc3c(c2)CC(=O)N3C)o1
  RP-LC retention time: 693 s

## O=C(NC1CC1)C1CCCN(C(=O)c2ccc(F)cc2)C1 (stereo unspecified)
  RP-LC retention time: 629 s

## CCCCCn1c(=O)c2ccccc2n(Cc2nc(-c3cccc(OCC)c3)no2)c1=O
  RP-LC retention time: 1350 s

## Cc1ccc(CNC(=O)C2CCN(S(=O)(=O)c3cc(-c4noc(C5CC5)n4)sc3C)CC2)o1
  RP-LC retention time: 1010 s

## CCC(=O)N(C1CCOCC1)C1CCN(S(=O)(=O)c2ccc(C(C)C)cc2)CC1
  RP-LC retention time: 983 s
